Assay results reported in US11149047B2, “Aryl imidazoles for treatment of cancer” (Aptose Biosciences Inc., priority 2017, dated 2021).

Assays:
ds-DNA = test: Modified FRET assay with ds-DNA hairpin oligo; assay type: binding
Method: (§1) FRET assay and data analysis was performed as described previously and modified by using dual labeled (5′ FAM-3′ BHQ1) single-stranded oligos. Melting temperature of each oligo was assessed in the presence of vehicle DMSO or escalating concentrations of COMPOUND I, Fe(COMPOUND I)3, CX-5461, or TMPyP4 using a Roche LightCycler 96 [at 37° C. for 300 seconds followed by temperature increased in […] intervals up to 91° C. (25 steps) with 300-second total incubation time at each temperature]. Drug and oligo reaction mixes were analyzed immediately or incubated for 6 hours at room temperature and then analyzed. […] COMPOUND I data are presented for 6-hour time point.
To assess selectivity for G4 structures over nonspecific interactions with ds-DNA, the FRET assay was repeated with a self-complimentary oligo that forms a ds-DNA hairpin in solution. […] The lack of effect on 45 s rRNA may reflect differences in availability of COMPOUND I and/or Fe(COMPOUND I)3 into the rRNA-rich nucleolar region of the nucleus. Nevertheless, COMPOUND I clearly can stabilize G4 structures, which provides an explanation for the inhibition of the expression of MYC and other genes. […]

Raji cells = test: Cellular pharmacology: intracellular accumulation and efflux by LC-MS/MS; assay type: in vitro ADME, human
Method: (§2) Cells exposed to COMPOUND I or Fe(COMPOUND I)3 were homogenized in acetonitrile containing 5 ng of a deuterated COMPOUND I standard. Samples were analyzed at the UCSD Molecular Mass Spectrometry Facility employing an Agilent 1260 liquid chromatograph (LC) system coupled with a Thermo LCQdeca mass spectrometer using positive ion mode electrospray ionization (ESI) as the ion source. The ESI ion source voltage was set at 5 kV, with sheath gas flow rate of 80 units, auxiliary gas flow rate of 20 units, and capillary temperature of 250° C., respectively. A Phenomenex Kinetex Biphenyl column (ID 2.1 mm×length 50 mm, particle size 2.6 μm) was utilized for LC separation using water with 0.1% formic acid as the mobile phase A and acetonitrile with 0.1% formic acid as the mobile phase B. The LC flow rate was set at 0.30 mL/min. The LC gradient increased from 5% mobile phase B to 95% mobile phase B in 10 minutes, held at 95% B for 2 minutes, returned to 5% B in 1 minute, and then held at 5% B for 6 minutes. […] Selected reaction monitoring (SRM) mode was used to acquire the m/z 353 and m/z 359 fragmental peaks. The SRM peak area ratio (COMPOUND I/COMPOUND I-d6) related to the amount of spiked COMPOUND I-d6 was used for the quantification of COMPOUND I and Fe(COMPOUND I)3 in the samples. The same column, gradient and flow rate were used for detection of Fe(COMPOUND I)3 which was detected using an Agilent 1100 HPLC and Orbitrap XL (Thermo) mass spectrometer employing a Thermo IonMax ESI interface. The Fe(COMPOUND I)3 eluted around 11.5 minutes with these conditions. A 10:1 flow split was used for the eluent flow rate of 0.3 mL/min, so that approximately 0.030 mL/min was introduced into the ESI after the split. […]
For this reason, Raji Burkitt's lymphoma cells were selected for study of the cellular pharmacology of COMPOUND I. The intracellular accumulation of COMPOUND I in the Raji cells was quantified by liquid chromatography tandem mass spectroscopy (LC-MS/MS). […]

Raji/COMPOUND IR cells = test: as above; assay type: in vitro ADME, human
Method: as §2
Resistance in the Raji/COMPOUND IR cells may be due to alterations in influx or efflux, intracellular detoxification or a change in the primary target of the drug. The intracellular accumulation of both native COMPOUND I and the Fe(COMPOUND I)3 in Raji and Raji/COMPOUND IR cells incubated with either native COMPOUND I or the Fe(COMPOUND I)3 complex was monitored.

[1] = system: G4 sequences (telomere, MYC, KIT, rRNA oligos); test: Modified FRET assay, melting of G-quadruplex oligos; assay type: binding, human; details: FIG. 13C; COMPOUND I data at 6-hour incubation
Method: as §1
The ability of COMPOUND I (parental monomeric form of the drug) and Fe(COMPOUND I)3 to bind and stabilize G4 sequences using a modified FRET assay was evaluated (FIGS. 21 and 22). TMPyP4, a well-known G4 ligand, and CX-5461, a clinical stage molecule recently reported to have G4-binding properties, were utilized as controls to assess the specificity of COMPOUND I and Fe(COMPOUND I)3 for G4-stabilizing activity.

For Cc1[nH]c2ccc(F)cc2c1-c1nc2c3cccnc3c3ncccc3c2[nH]1 [COMPOUND I, 2-(5-fluoro-2-methyl-1H-indol-3-yl)-1H-imidazo[4,5-f][1,10]phenanthroline], the “interaction with dsDNA” value (ds-DNA) was “did not interact with dsDNA”, the “time at which cellular content approaches steady-state” value (Raji cells; Raji cells, FIG. 6A) was roughly 6 h and the “Rate of efflux over first 2 hours” value (Raji cells; Raji cells, mean ± SEM, n = 6) was −0.19 ± 0.025 log fmole/10^7 cells/h. The “intracellular Zn chelate” value (Raji cells; cells exposed to COMPOUND I) was “a Zn chelate was not detectable”, the “rate of accumulation in Raji/COMPOUND IR vs Raji cells” value (Raji/COMPOUND IR cells; 0.5 μM, FIG. 6A, 6B) was “severely reduced” and the “Rate of efflux over first 2 hours” value (Raji/COMPOUND IR cells; Raji/COMPOUND IR cells, mean ± SEM, n = 6) was −0.26 ± 0.025 log fmole/10^7 cells/h. For the same compound, the “difference in efflux over first 2 h between Raji and Raji/COMPOUND IR” value (Raji/COMPOUND IR cells; after loading of the cells) was “no apparent difference in the efflux” and the “stabilization of G4 sequences (ΔT1/2)” value [1] was “time-dependent stabilization of G4 motifs, but it demonstrated the greatest propensity for stabilizing the MYC G4 sequences”.
